Several values for one entry are separate records, joined by “and”; a condition that tells them apart may be missing. Equal entries are not always repeated. After the bases stand the sugars from the 5' end (letter, count) and the backbone: PS all phosphorothioate, else s phosphorothioate and o phosphodiester by linkage. Methylation of C is not given here. e = 2'-O-(2-methoxyethyl) (MOE); k = constrained ethyl (cEt); d = 2'-deoxy (DNA)
Target: SOD1
Settings: ASO

CTGGTTCCGAGGACTGCAAC (sugars e5 d10 e5, PS)
target mRNA inhibition (HepG2, 4 µM): 51%

AGGATAACAGATGAGTT (sugars e3 k2 d7 k2 e3, PS)
target mRNA inhibition (HepG2, 3 µM): 45%

TAAGTGCCATACAGGGT (sugars e2 k2 d9 k2 e2, PS)
target mRNA inhibition (HepG2, 5 µM): 35%

ATACAGGGTTTTTATTC (sugars e3 k2 d7 k2 e3, PS)
target mRNA inhibition (HepG2, 3 µM): 3%

GGGCCTCAGACTACATC (sugars e2 k2 d8 k2 e3, PS)
target mRNA inhibition (HepG2, 4 µM): 55%

GTGCCATACAGGGTTTT (sugars e2 k2 d9 k2 e2, PS)
target mRNA inhibition (HepG2, 5 µM): 28%

TTGGATTCTTTTAATAG (sugars e2 k2 d9 k2 e2, PS)
target mRNA inhibition (HepG2, 5 µM): 8%

AATGCTTCCCCACACCT (sugars e3 k2 d7 k2 e3, PS)
target mRNA inhibition (HepG2, 3 µM): 35%

GTGATCATAAATCAGTT (sugars e2 k2 d8 k2 e3, PS)
target mRNA inhibition (HepG2, 5 µM): 33%

CTTCCAAGTGATCATAA (sugars e2 k2 d8 k2 e3, PS)
target mRNA inhibition (HepG2, 5 µM): 40%

CAGTGTTTAATGTTTAT (sugars e3 k2 d7 k2 e3, PS)
target mRNA inhibition (HepG2, 3 µM): 54%

TCTTCCAAGTGATCATAAAT (sugars e5 d10 e5, PS)
target mRNA inhibition (HepG2, 5 µM): 12%

TCAGACTACATCCAAGG (sugars e2 k2 d8 k2 e3, PS)
target mRNA inhibition (HepG2, 0.1875 µM): 37% | target mRNA inhibition (HepG2, 0.75 µM): 71% | target mRNA inhibition (HepG2, 3 µM): 81% | target mRNA inhibition (HepG2, 4 µM): 79% | target mRNA inhibition (HepG2, 12 µM): 92%

TAATACCCATCTGTGAT (sugars e2 k2 d9 k2 e2, PS)
target mRNA inhibition (HepG2, 5 µM): 28%

ATCTGTGATTTAAGTCT (sugars e2 k2 d9 k2 e2, PS)
target mRNA inhibition (HepG2, 5 µM): 37%

AATCTTCCAAGTGATCA (sugars e2 k2 d8 k2 e3, PS)
target mRNA inhibition (HepG2, 5 µM): 19%

TGGACCACCAGTGTGCGGCC (sugars e5 d10 e5, PS)
target mRNA inhibition (HepG2, 5 µM): 28%

GGAATGTTTATTGGGCG (sugars e2 k2 d8 k2 e3, PS)
target mRNA inhibition (HepG2, 4 µM): 37%

GGGCCTCAGACTACATC (sugars e3 k2 d7 k2 e3, PS)
target mRNA inhibition (HepG2, 3 µM): 24%

GAATCCATGCAGGCCTT (sugars e3 k2 d7 k2 e3, PS)
target mRNA inhibition (HepG2, 3 µM): 9%

AGATTACAGTGTTTAAT (sugars e2 k2 d9 k2 e2, PS)
target mRNA inhibition (HepG2, 0.1875 µM): 28% | target mRNA inhibition (HepG2, 0.75 µM): 41% | target mRNA inhibition (HepG2, 3 µM): 63% | target mRNA inhibition (HepG2, 5 µM): 63% | target mRNA inhibition (HepG2, 12 µM): 71%

ATAATAAGTGCCATACA (sugars e2 k2 d8 k2 e3, PS)
target mRNA inhibition (HepG2, 5 µM): 27%

GATTTAAGTCTGGCAAA (sugars e2 k2 d8 k2 e3, PS)
target mRNA inhibition (HepG2, 5 µM): 19%

GGCCAGACCTCCGCGCCTCG (sugars e5 d10 e5, PS)
target mRNA inhibition (HepG2, 4 µM): 49%

CAAAATACAGGTCATTG (sugars e2 k2 d9 k2 e2, PS)
target mRNA inhibition (HepG2, 5 µM): 56%

GCACTGGTACAGCCTGCTGT (sugars e5 d10 e5, PS)
target mRNA inhibition (HepG2, 5 µM): 31% and 24%

TCACAGGCTTGAATGAC (sugars e2 k2 d8 k2 e3, PS)
target mRNA inhibition (HepG2, 5 µM): 28%

TTAATGTTTATCAGGATA (sugars e5 d8 e5, linkages s1 o3 s9 o2 s2)
target mRNA inhibition (A431, 0.12 µM): 18% | target mRNA inhibition (A431, 0.6 µM): 7% | target mRNA inhibition (A431, 3 µM): 11% | target mRNA inhibition (A431, 15 µM): 9% | target mRNA inhibition (HepG2, 0.222 µM): 0% | target mRNA inhibition (HepG2, 0.667 µM): 17% | target mRNA inhibition (HepG2, 2 µM): 47% | target mRNA inhibition (HepG2, 6 µM): 72%

TCACAGGCTTGAATGAC (sugars e2 k2 d9 k2 e2, PS)
target mRNA inhibition (HepG2, 5 µM): 46%

CTACAGCTAGCAGGATA (sugars e2 k2 d8 k2 e3, PS)
target mRNA inhibition (HepG2, 0.1875 µM): 40% | target mRNA inhibition (HepG2, 0.75 µM): 79% | target mRNA inhibition (HepG2, 3 µM): 89% | target mRNA inhibition (HepG2, 4 µM): 87% | target mRNA inhibition (HepG2, 12 µM): 94%

ACAGTGTTTAATGTTTA (sugars e3 k2 d7 k2 e3, linkages s1 o2 s9 o2 s2)
target mRNA inhibition (A431, 0.12 µM): 12% | target mRNA inhibition (A431, 0.6 µM): 26% | target mRNA inhibition (A431, 3 µM): 45% | target mRNA inhibition (A431, 15 µM): 47% | target mRNA inhibition (HepG2, 0.222 µM): 51% | target mRNA inhibition (HepG2, 0.667 µM): 70% | target mRNA inhibition (HepG2, 2 µM): 80% | target mRNA inhibition (HepG2, 6 µM): 74%

ACCAGTGTGCGGCCAATGAT (sugars e5 d10 e5, PS)
target mRNA inhibition (HepG2, 5 µM): 0%

CATACAGGGTTTTTATT (sugars e3 k2 d7 k2 e3, PS)
target mRNA inhibition (HepG2, 3 µM): 0%

CATGCCTCTCTTCATCC (sugars e3 k2 d7 k2 e3, PS)
target mRNA inhibition (HepG2, 3 µM): 14%

CAAAATACAGGTCATTG (sugars e2 k2 d8 k2 e3, PS)
target mRNA inhibition (HepG2, 5 µM): 44%

CAAGTTTAATACCCATC (sugars e3 k2 d7 k2 e3, PS)
target mRNA inhibition (HepG2, 3 µM): 37%

GGATAACAGATGAGTTA (sugars e2 k2 d9 k2 e2, PS)
target mRNA inhibition (HepG2, 4 µM): 63%

Reference: the OligoGym collection
